Values after ≈ are worked out from the molar mass of the structure shown. Read-outs that look alike come from different tables or passages of the source.
Tests used:
[1] = Polymorph form conversion / solid-state stability (XRPD, VT-XRPD); format: physicochemical; settings: polymorph screening overall
Experimental: To confirm stability and suitability of Ulodesine hemi-glutarate Type A, a polymorph screening was conducted to search for other potential crystal forms and identify the most suitable form to confirm the previous findings.
Using glutarate Type A as starting material, a polymorph screening was conducted under 100 conditions through methods of anti-solvent addition, solid vapor diffusion, liquid vapor diffusion, slow evaporation, polymer-induced crystallization, temperature cycling, slurry at room temperature (RT)/50 °C and slow cooling.
X-ray powder diffraction data at variable temperature was collected at on a Malvern Panalytical Empyrean diffractometer. Flat a few milligrams of sample on a sample holder and compact it by a glass slide with protection of a piece of weighting paper. An X-ray generator of 1800 W was employed at 45 kV and 40 mA and was equipped with an X-ray tube of Cu (Kα), with the Kα2/Kα1 intensity ratio of 0.50 (1.54439 Å/1.5406 Å). Data were collected from 3° to […] (2θ) at a step size of 0.026° (2θ) with time per step of 49.7 s.
Glutarate Type B (E0007-A01-06) was only observed by heating glutarate Type A to 130 °C using X-ray powder diffractometer at variable temperature mode (VT-XRPD).
Based on the characterization results, glutarate Type C was speculated as a channel hydrate (the water molecules of a channel hydrate lie next to other water molecules of adjoining unit cell, forming channels through the crystals).
Type C was re-prepared at 100 mg in triplicate via temperature cycling slurry in anisole/MeOH (1:2, v/v).

[2] = Approximate solubility of starting material at RT; format: physicochemical; settings: RT (~27 °C)
Experimental: The solubility of starting material (E0007-A01-02) was estimated at RT (~27 °C).
Specifically, approximate 2 mg of solid was added into an HPLC glass vial. The solvents below were then added stepwise ([…]) into the vials until the solids were dissolved or a total volume of 1.0 mL was reached.
The solubility data were used to guide the solvent selection in polymorph screening. Approximate solubility of starting material (E0007-A01-02) at RT: […]

[3] = Physicochemical stability (2-week, open conditions)
[4] = Kinetic solubility (37 °C/24 h); format: physicochemical
[5] = Physicochemical stability (2-week, open conditions); settings: for remaining at 336 h: 2-week; for remaining at 336 h / remaining at 240 h: read-out: Purity; for remaining at 240 h: 10-day
Excerpt: SHIMADZU LC-20AD was employed to detect the chemical purity HPLC method for purity test

[6] = Hygroscopicity by DVS at 25 °C; format: physicochemical
Experimental: To understand the hygroscopicity of glutarate type A, DVS was employed to measure the mass change as a function of relative humidity at 25 °C (FIG. 14).
Dynamic vapour sorption was performed with ADVENTURE series DVS and Intrinsic-1 DVS at 25 °C under nitrogen blow. Approximately 30 milligrams of material were used. Anhydrate was analyzed using methods below: 0% RH to 95% RH to 0% RH at 10% RH (5% RH from 90% RH to 95% RH to 90% RH). After equilibrium at ambient conditions (50% RH), the hydrate sample was analyzed using method below: 1. Ambient relative humidity to 95% RH at 10% RH (5% from 90% RH to 95% RH). 2. 95% RH to 0% RH at 10% RH (5% from 95% RH to 90% RH). 3. 0% RH to 95% RH at 10% RH (5% RH from 90% RH to 95% RH).
The moisture sorption profile was generated at 25 °C using a DVS moisture balance flow system (Model Advantage 1.0) with the following conditions: sample size approximately 10 mg, drying 25 °C for 60 minutes, adsorption range 0% to 95% RH, desorption range 95% to 0% RH, and step interval 5%. The equilibrium criterion was <0.01% weight change in 5 minutes for a maximum of 120 minutes.

[7] = Drying stability (vacuum, RT/50/70 °C); format: physicochemical
brown adipocytes = settings: via cAMP/protein kinase A signalling pathway; cited from earlier work
Diet induced obese mice = settings: cited from earlier work

## O=c1[nH]cnc2c(CN3C[C@H](CO)[C@@H](O)C3)c[nH]c12 [Glutarate Type A]
[1]
  solid-state properties and stability: good solid-state properties and stability
[2]; H2O
  solubility: > 36000 µg/mL
[2]; organic solvent or mixture, 1,4-Dioxane
  solubility: < 2000 µg/mL
[2]; organic solvent or mixture, 2-MeTHF
  solubility: < 1900 µg/mL
[2]; organic solvent or mixture, ACN
  solubility: < 1900 µg/mL
[2]; organic solvent or mixture, Acetone/H2O (9:1)
  solubility: < 1900 µg/mL
[2]; organic solvent or mixture, Acetone
  solubility: < 2100 µg/mL
[2]; organic solvent or mixture, CPME
  solubility: < 1900 µg/mL
[2]; organic solvent or mixture, DCM/MeOH (1:1)
  solubility: < 1900 µg/mL
[2]; organic solvent or mixture, DCM
  solubility: < 1800 µg/mL
[2]; organic solvent or mixture, DMAc
  solubility: 2000 to 6500 µg/mL (≈ 7.57 to 24.6 mM)
[2]; organic solvent or mixture, DMF
  solubility: 2300 to 7600 µg/mL (≈ 8.7 to 28.8 mM)
[2]; organic solvent or mixture, DMSO
  solubility: > 39600 µg/mL
[2]; organic solvent or mixture, EtOAc
  solubility: < 2100 µg/mL
[2]; organic solvent or mixture, EtOH/H2O (2:1)
  solubility: 22600 to 45200 µg/mL (≈ 85.5 to 171 mM)
[2]; organic solvent or mixture, EtOH/H2O (4:1)
  solubility: 2100 to 6900 µg/mL (≈ 7.95 to 26.1 mM)
[2]; organic solvent or mixture, EtOH/H2O (9:1)
  solubility: < 2000 µg/mL
[2]; organic solvent or mixture, EtOH
  solubility: < 2100 µg/mL
[2]; organic solvent or mixture, IPA
  solubility: < 1800 µg/mL
[2]; organic solvent or mixture, IPAc
  solubility: < 2000 µg/mL
[2]; organic solvent or mixture, MEK
  solubility: < 1900 µg/mL
[2]; organic solvent or mixture, MIBK
  solubility: < 1800 µg/mL
[2]; organic solvent or mixture, MTBE
  solubility: < 2000 µg/mL
[2]; organic solvent or mixture, MeOH
  solubility: 1900 to 6500 µg/mL (≈ 7.19 to 24.6 mM)
[2]; organic solvent or mixture, NMP
  solubility: 1900 to 6300 µg/mL (≈ 7.19 to 23.8 mM)
[2]; organic solvent or mixture, THF/H2O (9:1)
  solubility: < 2000 µg/mL
[2]; organic solvent or mixture, THF
  solubility: < 2000 µg/mL
[2]; organic solvent or mixture, Toluene
  solubility: < 1900 µg/mL
[2]; organic solvent or mixture, n-Heptane
  solubility: < 2000 µg/mL
[3]; 2-week, 25 °C/60% RH
  Form change: No
[3]; 2-week, 40 °C/75% RH
  Form change: No
[3]; 2-week, 60 °C
  Form change: No
[3]; 10-day, 25 °C/60% RH
  Form change: No
[3]; 10-day, 40 °C/75% RH
  Form change: No
[3]; 10-day, 60 °C
  Form change: No
[4]; FaSSIF
  solubility kinetic at 24 h: > 16.8 mg/mL
[4]; FeSSIF
  solubility kinetic at 24 h: > 16.8 mg/mL
[4]; SGF
  solubility kinetic at 24 h: > 16.8 mg/mL
[4]; water
  solubility kinetic at 24 h: > 16.8 mg/mL
[5]; 25 °C/60% RH
  remaining at 336 h: 97.8%
  remaining at 240 h: 97.7%
[5]; 40 °C/75% RH
  remaining at 336 h: 97.7%
  remaining at 240 h: 97.8%
[5]; 60 °C
  remaining at 336 h: 97.3%
  remaining at 240 h: 97.6%
[5]; initial
  Initial purity: 97.9 area %
[6]; 25 °C/80% RH
  water uptake: 1.1%
[6]; 25 °C/80% RH, in words
  hygroscopicity: slightly hygroscopic
[6]; 25 °C/95% RH
  water uptake: 10.4%
[6]; XRPD after DVS
  form change after DVS: no form change
[7]; 70 °C
  change in crystallinity on vacuum drying: slight decrease
[7]; overnight, 50 °C
  change in crystallinity on vacuum drying: no change in crystallinity
[7]; overnight, RT
  change in crystallinity on vacuum drying: no change in crystallinity

## OC[C@H]1O[C@@H](n2cnc3c(O)ncnc32)[C@H](O)[C@@H]1O [inosine]
Brown adipocytes
  energy expenditure in brown adipocytes: stimulates energy expenditure
Diet induced obese mice; diet induced obese mice, daily for 26 days, vs vehicle
  weight: significant reduction in weight
Diet induced obese mice; mice
  BAT dependent energy expenditure: increased BAT dependent energy expenditure
  browning of white adipose tissue: induced browning of white adipose tissue
